Among the data in DBAASP are MIC values, retold here.

≈ marks a conversion by molar mass, not a printed value.

Broadly, the MIC is the lowest concentration that inhibits growth of the organism. A higher MIC goes with a less susceptible organism.

Some test systems named below: Trichoderma asperellum; Ramulariopsis gossypii; Fusarium solani; Fusarium oxysporum; Acinetobacter baumannii; Pseudomonas aeruginosa; Escherichia coli K99; Escherichia coli UB1005; Escherichia coli K88; Klebsiella pneumoniae; Escherichia coli.
What all share (assay): ≥ marks a high value that may be exact or a test limit, other limits are often not marked, values filed in µg/mL are converted to µM
Test [1] relates to Cryptococcus neoformans ATCC 28957.
Test [2] concerns Bacillus subtilis ATCC 23857.
Test [3] concerns Fusarium oxysporum f.sp. vasinfectum.
Test [4] has as its system Candida albicans ATCC 90028.
The subject of test [5] is Pseudomonas syringae pv. tabaci.
Test [6] concerns Escherichia coli ATCC 25922.
In test [7] the test system is Staphylococcus aureus ATCC 25923.
For test [8], the system named is Pectobacterium carotovorum.
The test system of test [9] is Listeria monocytogenes ATCC 19115.
Test [10] concerns Staphylococcus aureus CMCC 26003.
Test [11] has as its system Bacillus subtilis CMCC 63501.
In test [12] the test system is Pseudomonas aeruginosa CICC 21625.
The subject of test [13] is Pseudomonas aeruginosa CICC 21630.
Test [14] has as its system Pseudomonas aeruginosa ATCC 27853.
In test [15] the test system is Salmonella enterica subsp. enterica serovar Typhimurium C77-31.
Test [16] relates to Salmonella enterica subsp. enterica serovar Typhimurium ATCC 14028.
In test [17] the test system is Pseudomonas aeruginosa PAO1.
Test [18] concerns Salmonella enterica subsp. enterica serovar Pullorum C79-13.
Test [19] has as its system Pseudomonas syringae EPS 94.
The test system of test [20] is Fusarium oxysporum f. sp. lycopersici ATCC 201829.
The test system of test [21] is Aspergillus niger CECT 2694.
Test [22] deals with Xanthomonas vesicatoria 2133-2.
Test [23] concerns Erwinia amylovora PMV 6076.
In test [24] the test system is Rhizopus stolonifer CECT 2344.
The subject of test [25] is Penicillium expansum EPS 26.

For `CC[C@H](C)[C@H](NC(=O)[C@H](CCCCN)NC(=O)[C@@H](NC(=O)[C@@H](NC(=O)[C@H](CC(N)=O)NC(=O)[C@H](Cc1ccc(O)cc1)NC(=O)[C@H](Cc1ccccc1)NC(=O)[C@@H](N)Cc1ccccc1)C(C)C)[C@@H](C)CC)C(=O)N[C@@H](Cc1ccc(O)cc1)C(=O)NCC(=O)N[C@@H](CC(N)=O)C(=O)N[C@@H](CCSC)C(=O)N[C@@H](C)C(=O)NCC(=O)N[C@@H](CCCN=C(N)N)C(=O)N[C@H](C(=O)N[C@@H](CO)C(=O)N[C@@H](CCCCN)C(N)=O)[C@@H](C)CC` [FFYNVIKIYGNMAGRISK], the MIC was at least 32 µM in test [1]; at least 64 µM in test [2]; at least 256 µM in the test on Trichoderma asperellum; at least 64 µM in the test with Ramulariopsis gossypii; at least 128 µM against Fusarium solani; at least 128 µM in test [3]. Moreover, the MIC is at least 128 µM in test [4]; at least 128 µM in the test on Fusarium oxysporum; at least 128 µM in test [5]; 128 µM (≈ 271 µg/mL) in test [6]; 128 µM (≈ 271 µg/mL) in [7]; 16 µM (≈ 33.9 µg/mL) in test [8].

As to `CC[C@H](C)[C@H](NC(=O)[C@H](CCCN=C(N)N)NC(=O)[C@H](CCCN=C(N)N)NC(=O)[C@H](CC(C)C)NC(=O)[C@@H](N)Cc1ccccc1)C(=O)N[C@@H](CCCN=C(N)N)C(=O)N[C@H](C(=O)N[C@H](C(=O)N1CCC[C@H]1C(=O)N[C@@H](Cc1c[nH]c2ccccc12)C(=O)N[C@H](C(=O)N[C@@H](CC(N)=O)C(=O)N1CCC[C@H]1C(=O)N1CCC[C@H]1C(=O)N[C@@H](Cc1ccccc1)C(=O)N[C@@H](CC(C)C)C(=O)N[C@@H](CCC(N)=O)C(=O)N[C@@H](CCC(N)=O)C(=O)N[C@H](C(N)=O)[C@@H](C)O)C(C)C)[C@@H](C)O)C(C)C` [FLRRIRVTPWVNPPFLQQT], the MIC was at least 54 µM in test [9] and at least 108 µM in test [10].

Consider `CC[C@H](C)[C@H](NC(=O)[C@H](CCCN=C(N)N)NC(=O)[C@H](CCCN=C(N)N)NC(=O)[C@H](Cc1c[nH]c2ccccc12)NC(=O)[C@@H](N)Cc1ccccc1)C(=O)N[C@@H](CCCN=C(N)N)C(=O)N[C@H](C(=O)N[C@H](C(=O)N1CCC[C@H]1C(=O)N[C@@H](Cc1c[nH]c2ccccc12)C(=O)N[C@H](C(=O)N[C@@H](CC(N)=O)C(=O)N1CCC[C@H]1C(=O)N1CCC[C@H]1C(=O)N[C@@H](Cc1ccccc1)C(=O)N[C@@H](CC(C)C)C(=O)N[C@@H](CCC(N)=O)C(=O)N[C@@H](CCC(N)=O)C(=O)N[C@H](C(N)=O)[C@@H](C)O)C(C)C)[C@@H](C)O)C(C)C` [FWRRIRVTPWVNPPFLQQT], for which the MIC in [9] is 26.2 µM (≈ 64 µg/mL); in test [11], at least 105 µM; in [10], 26.2 µM (≈ 64 µg/mL).

On to `CC(C)C[C@H](NC(=O)[C@@H]1CCCN1C(=O)[C@H](CCCN=C(N)N)NC(=O)[C@H](CC(C)C)NC(=O)[C@H](CC(C)C)NC(=O)[C@@H]1CCCN1C(=O)[C@H](CCCN=C(N)N)NC(=O)[C@H](CC(C)C)NC(=O)[C@H](CC(C)C)NC(=O)[C@@H]1CCCN1C(=O)[C@H](CCCN=C(N)N)NC(=O)[C@H](CC(C)C)NC(=O)[C@H](CC(C)C)NC(=O)[C@@H]1CCCN1C(=O)[C@H](CCCN=C(N)N)NC(=O)[C@H](CC(C)C)NC(=O)[C@H](CC(C)C)NC(=O)[C@@H]1CCCN1C(=O)[C@H](CCCN=C(N)N)NC(=O)[C@H](CC(C)C)NC(=O)[C@H](CC(C)C)NC(=O)[C@@H]1CCCN1C(=O)[C@H](CCCN=C(N)N)NC(=O)[C@@H](N)CC(C)C)C(N)=O` [LRPLLRPLLRPLLRPLLRPLLRPL], for which the minimal inhibitory concentration (MIC) against Acinetobacter baumannii was 2 µM (≈ 5.79 µg/mL); in test [12] it was at least 32 µM; in test [13], 8 µM (≈ 23.2 µg/mL); in the test with Pseudomonas aeruginosa, 32 µM (≈ 92.6 µg/mL); against Escherichia coli K99, 2 µM (≈ 5.79 µg/mL); in the test on Escherichia coli UB1005 it was 2 µM (≈ 5.79 µg/mL). The minimal inhibitory concentration (MIC) was 8 µM (≈ 23.2 µg/mL) in [14]; 2 µM (≈ 5.79 µg/mL) in test [15]; 4 µM (≈ 11.6 µg/mL) in test [16]; 4 µM (≈ 11.6 µg/mL) in test [17]; 2 µM (≈ 5.79 µg/mL) in the test with Escherichia coli K88; 8 µM (≈ 23.2 µg/mL) in the test on Klebsiella pneumoniae. Moreover, the minimal inhibitory concentration (MIC) (with Escherichia coli; in test [6]; in [18]) was 2 µM (≈ 5.79 µg/mL) in each case.

`CC(C)C[C@H](NC(=O)[C@@H]1CCCN1C(=O)[C@H](CCCN=C(N)N)NC(=O)[C@H](CC(C)C)NC(=O)[C@H](CC(C)C)NC(=O)[C@@H]1CCCN1C(=O)[C@H](CCCN=C(N)N)NC(=O)[C@H](CC(C)C)NC(=O)[C@H](CC(C)C)NC(=O)[C@@H]1CCCN1C(=O)[C@H](CCCN=C(N)N)NC(=O)[C@H](CC(C)C)NC(=O)[C@H](CC(C)C)NC(=O)[C@@H]1CCCN1C(=O)[C@H](CCCN=C(N)N)NC(=O)[C@H](CC(C)C)NC(=O)[C@H](CC(C)C)NC(=O)[C@@H]1CCCN1C(=O)[C@H](CCCN=C(N)N)NC(=O)[C@@H](N)CC(C)C)C(N)=O` [LRPLLRPLLRPLLRPLLRPL]: the MIC against Acinetobacter baumannii is 2 µM (≈ 4.83 µg/mL); in [12], at least 32 µM; in test [13], 16 µM (≈ 38.6 µg/mL); against Pseudomonas aeruginosa, 32 µM (≈ 77.3 µg/mL); against Escherichia coli K99, 4 µM (≈ 9.66 µg/mL); against Escherichia coli UB1005, 4 µM (≈ 9.66 µg/mL). The MIC in [14] was determined as 32 µM (≈ 77.3 µg/mL); in [15] it was 4 µM (≈ 9.66 µg/mL); in [16], 4 µM (≈ 9.66 µg/mL); in [17], 32 µM (≈ 77.3 µg/mL); in the test with Escherichia coli K88, 2 µM (≈ 4.83 µg/mL); in the test on Klebsiella pneumoniae, 8 µM (≈ 19.3 µg/mL). In addition, the MIC against Escherichia coli is 4 µM (≈ 9.66 µg/mL); in test [6], 4 µM (≈ 9.66 µg/mL); in [18], 2 µM (≈ 4.83 µg/mL).

Regarding `CC[C@H](C)[C@H](NC(=O)[C@H](CCCCN)NC(=O)[C@H](CCCCN)NC(=O)[C@H](Cc1ccccc1)NC(=O)[C@H](CC(C)C)NC(=O)[C@H](CCCCN)NC(=O)[C@@H](N)Cc1c[nH]c2ccccc12)C(=O)N[C@@H](CC(C)C)C(=O)N[C@@H](CCCCN)C(=O)N[C@@H](Cc1ccccc1)C(=O)N[C@@H](CC(C)C)C(N)=O` [WKLFKKILKFL], the MIC in test [19] was 5.92 µM (≈ 8.65 µg/mL); in [20], 1.73 µM (≈ 2.53 µg/mL); in [21], 22.4 µM (≈ 32.7 µg/mL); in test [22] it was 2 µM (≈ 2.93 µg/mL); in [23], 5.92 µM (≈ 8.65 µg/mL); in test [24], at least 35.4 µM. The compound also showed an MIC in test [25] of 22.4 µM (≈ 32.7 µg/mL).
